Columns and labels:
wild oat = assay: Test B pre/postemergence wild oat; type: in vivo, Avena fatua
Procedure, shortened: (§1)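 Herbicidal effect was estimated by eye on a ten-point control scale after plants spent twelve to sixteen days in a greenhouse following soil or foliar treatment. Foliar sprays targeted plants at one to four leaves; all doses were formulated in a non-phytotoxic solvent with surfactant.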

purple nutsedge = assay: Test B pre/postemergence purple nutsedge; type: in vivo, Cyperus rotundus
Procedure, shortened: as §1

morningglory = assay: Test B pre/postemergence morningglory; type: in vivo, Ipomoea hederacea
Procedure, shortened: as §1

smallflower flatsedge = assay: Test B flood test smallflower flatsedge; type: in vivo, Cyperus difformis
Procedure, shortened: (§2)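 Flood test on plants grown to the 2-leaf stage; treated plants kept in greenhouse twelve to sixteen days, then visually rated against controls on a 0 (no effect) to 10 (complete control) scale.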

surinam grass = assay: Test B pre/postemergence surinam grass; type: in vivo, Brachiaria decumbens
Procedure, shortened: as §1

cocklebur = assay: Test B pre/postemergence cocklebur; type: in vivo, Xanthium strumarium
Procedure, shortened: as §1

wheat = assay: Test B pre/postemergence wheat; type: in vivo, Triticum aestivum
Procedure, shortened: as §1

bedstraw = assay: Test B pre/postemergence bedstraw; type: in vivo, Galium aparine
Procedure, shortened: as §1

crabgrass = assay: Test B pre/postemergence crabgrass; type: in vivo, Digitaria sanguinalis
Procedure, shortened: as §1

duck salad = assay: Test B flood test duck salad; type: in vivo, Heteranthera limosa
Procedure, shortened: as §2

blackgrass = assay: Test B pre/postemergence blackgrass; type: in vivo, Alopecurus myosuroides
Procedure, shortened: as §1

velvetleaf = assay: Test B pre/postemergence velvetleaf; type: in vivo, Abutilon theophrasti
Procedure, shortened: as §1

rice = assay: Test B flood test rice; type: in vivo, Oryza sativa
Procedure, shortened: as §2

corn = assay: Test B pre/postemergence corn; type: in vivo, Zea mays
Procedure, shortened: as §1

giant foxtail = assay: Test B pre/postemergence giant foxtail; type: in vivo, Setaria faberii
Procedure, shortened: as §1

soybean = assay: Test B pre/postemergence soybean; type: in vivo, Glycine max
Procedure, shortened: as §1

bamyardgrass = assay: Test B flood test barnyardgrass; type: in vivo, Echinochloa crus-galli
Procedure, shortened: as §2

[1] = Preemergence, Rate 31 g/ha, visual rating, scale 0 to 10 (0 no effect, 10 complete control)
[2] = Preemergence, Rate 62 g/ha, scale of 0 to 10 where 0 is no effect and 10 is complete control
[3] = Rate 16 g/ha, Postemergence, scale 0 to 10, 0 no effect, 10 complete control
[4] = Rate 16 g/ha, Preemergence, scale 0 to 10, 0 no effect, 10 complete control
[5] = Rate 62 g/ha, Postemergence, scale 0 to 10 (0 no effect, 10 complete control)
[6] = Rate 125 g/ha, Postemergence, scale of 0 to 10 where 0 is no effect and 10 is complete control
[7] = Rate 31 g/ha, Postemergence, scale 0 to 10
[8] = Rate 125 g/ha, Preemergence, scale of 0 to 10 where 0 is no effect and 10 is complete control
[9] = Rate 16 g/ha, head printed Pre-emergence (flood test species), scale 0 to 10, 0 no effect, 10 complete control
[10] = Rate 31 g/ha, Pre-emergence section (flood test species), scale 0 to 10
[11] = Rate 62 g/ha, headed Pre-emergence (flood test species), scale 0 to 10 (0 no effect, 10 complete control)
[12] = Rate 125 g/ha, Pre-emergence, flood test species, scale 0 to 10 where 0 is no effect and 10 is complete control

CC(C)N(C(=O)n1oc(=O)n(CCCF)c1=O)c1ccc(F)cc1 [Compound 287]
Wild oats plant response rating (wild oat; [1]): 1
Wild oats plant response rating (wild oat; [2]): 8
Wild oats plant response rating (wild oat; [3]): 0
Wild oats plant response rating (wild oat; [4]): 0
Wild oats plant response rating (wild oat; [5]): 2
Wild oats plant response rating (wild oat; [6]): 3
Nutsedge plant response rating (purple nutsedge; [1]): 0
Nutsedge plant response rating (purple nutsedge; [2]): 0
Nutsedge plant response rating (purple nutsedge; [3]): 0
Nutsedge plant response rating (purple nutsedge; [4]): 0
Nutsedge plant response rating (purple nutsedge; [7]): 5
Nutsedge plant response rating (purple nutsedge; [5]): 6
Nutsedge plant response rating (purple nutsedge; [6]): 6
Nutsedge plant response rating (purple nutsedge; [8]): 6
Morningglory plant response rating (morningglory; [1]): 0
Morningglory plant response rating (morningglory; [2]): 0
Morningglory plant response rating (morningglory; [3]): 2
Morningglory plant response rating (morningglory; [4]): 0
Morningglory plant response rating (morningglory; [7]): 2
Morningglory plant response rating (morningglory; [5]): 2
Morningglory plant response rating (morningglory; [6]): 2
Morningglory plant response rating (morningglory; [8]): 0
S. Flatsedge plant response rating (smallflower flatsedge; [9]): 0
S. Flatsedge plant response rating (smallflower flatsedge; [10]): 0
S. Flatsedge plant response rating (smallflower flatsedge; [11]): 0
S. Flatsedge plant response rating (smallflower flatsedge; [12]): 0
B. signalgrass plant response rating (surinam grass; [1]): 3
B. signalgrass plant response rating (surinam grass; [2]): 6
B. signalgrass plant response rating (surinam grass; [3]): 0
B. signalgrass plant response rating (surinam grass; [4]): 0
B. signalgrass plant response rating (surinam grass; [7]): 0
B. signalgrass plant response rating (surinam grass; [5]): 0
B. signalgrass plant response rating (surinam grass; [6]): 2
B. signalgrass plant response rating (surinam grass; [8]): 10
Cocklebur plant response rating (cocklebur; [1]): 0
Cocklebur plant response rating (cocklebur; [2]): 0
Cocklebur plant response rating (cocklebur; [3]): 0
Cocklebur plant response rating (cocklebur; [4]): 0
Cocklebur plant response rating (cocklebur; [7]): 0
Cocklebur plant response rating (cocklebur; [5]): 0
Cocklebur plant response rating (cocklebur; [6]): 1
Cocklebur plant response rating (cocklebur; [8]): 0
Wheat plant response rating (wheat; [1]): 0
Wheat plant response rating (wheat; [2]): 0
Wheat plant response rating (wheat; [3]): 0
Wheat plant response rating (wheat; [4]): 0
Wheat plant response rating (wheat; [5]): 5
Wheat plant response rating (wheat; [6]): 5
Wheat plant response rating (wheat; [8]): 7
Bedstraw plant response rating (bedstraw; [1]): 4
Bedstraw plant response rating (bedstraw; [2]): 9
Bedstraw plant response rating (bedstraw; [3]): 0
Bedstraw plant response rating (bedstraw; [4]): 0
Bedstraw plant response rating (bedstraw; [7]): 0
Bedstraw plant response rating (bedstraw; [5]): 4
Bedstraw plant response rating (bedstraw; [6]): 8
Bedstraw plant response rating (bedstraw; [8]): 10
Crabgrass plant response rating (crabgrass; [1]): 2
Crabgrass plant response rating (crabgrass; [2]): 8
Crabgrass plant response rating (crabgrass; [3]): 0
Crabgrass plant response rating (crabgrass; [4]): 0
Crabgrass plant response rating (crabgrass; [7]): 2
Crabgrass plant response rating (crabgrass; [5]): 2
Crabgrass plant response rating (crabgrass; [6]): 5
Crabgrass plant response rating (crabgrass; [8]): 9
Ducksalad plant response rating (duck salad; [9]): 0
Ducksalad plant response rating (duck salad; [10]): 0
Ducksalad plant response rating (duck salad; [11]): 0
Ducksalad plant response rating (duck salad; [12]): 0
Blackgrass plant response rating (blackgrass; [1]): 7
Blackgrass plant response rating (blackgrass; [2]): 10
Blackgrass plant response rating (blackgrass; [3]): 0
Blackgrass plant response rating (blackgrass; [4]): 0
Blackgrass plant response rating (blackgrass; [7]): 8
Blackgrass plant response rating (blackgrass; [5]): 8
Blackgrass plant response rating (blackgrass; [6]): 9
Blackgrass plant response rating (blackgrass; [8]): 10
Velvetleaf plant response rating (velvetleaf; [1]): 3
Velvetleaf plant response rating (velvetleaf; [2]): 6
Velvetleaf plant response rating (velvetleaf; [3]): 0
Velvetleaf plant response rating (velvetleaf; [4]): 1
Velvetleaf plant response rating (velvetleaf; [5]): 0
Velvetleaf plant response rating (velvetleaf; [6]): 4
Velvetleaf plant response rating (velvetleaf; [8]): 7
Rice plant response rating (rice; [9]): 0
Rice plant response rating (rice; [10]): 0
Rice plant response rating (rice; [11]): 0
Rice plant response rating (rice; [12]): 0
Corn plant response rating (corn; [1]): 0
Corn plant response rating (corn; [2]): 0
Corn plant response rating (corn; [3]): 0
Corn plant response rating (corn; [4]): 0
Corn plant response rating (corn; [7]): 0
Corn plant response rating (corn; [5]): 0
Corn plant response rating (corn; [6]): 0
Corn plant response rating (corn; [8]): 0
Giant foxtail plant response rating (giant foxtail; [1]): 9
Giant foxtail plant response rating (giant foxtail; [2]): 10
Giant foxtail plant response rating (giant foxtail; [3]): 0
Giant foxtail plant response rating (giant foxtail; [4]): 8
Giant foxtail plant response rating (giant foxtail; [7]): 2
Giant foxtail plant response rating (giant foxtail; [5]): 7
Giant foxtail plant response rating (giant foxtail; [6]): 8
Giant foxtail plant response rating (giant foxtail; [8]): 10
Soybean plant response rating (soybean; [1]): 0
Soybean plant response rating (soybean; [2]): 0
Soybean plant response rating (soybean; [3]): 1
Soybean plant response rating (soybean; [4]): 0
Soybean plant response rating (soybean; [5]): 1
Soybean plant response rating (soybean; [6]): 3
Soybean plant response rating (soybean; [8]): 6
Barnyardgrass plant response rating (bamyardgrass; [9]): 0
Barnyardgrass plant response rating (bamyardgrass; [10]): 0
Barnyardgrass plant response rating (bamyardgrass; [11]): 0
Barnyardgrass plant response rating (bamyardgrass; [12]): 0

— patent US6737383B1, “Herbicidal oxadiazolidines” (priority 1999, dated 2004)
